# Reference: US20220249596A1, “PIC1 PEPTIDE COMPOSITIONS AND METHODS OF USE THEREOF FOR TREATMENT OF HYPOXIC ISCHEMIC ENCEPHALOPATHY” (REALTA HOLDINGS, LLC, priority 2019, published 2022)
# “Also recorded” adds a separate entry of the source. No end group written: not given here.
# Legend:
# Format in all cases: in vivo, rat
# C1q = test: Immunofluorescence quantification of C1q in brain; conditions: ipsilateral cortex and hippocampus, 48 hours, versus NT and HT, P<0.05
# Protocol: (§1) TUNEL/C1q staining was performed as follows. Five (5) μm paraffin-embedded coronal brain sections on slides were incubated (1 hour; 60° C.), deparaffinized with xylene, and rehydrated with ethanol (100%, 95%, 70%; RT). Endogenous peroxidase activity was blocked (0.3% H2O2/MeOH; 10 minutes; RT), and heat induced antigen retrieval was performed (when indicated) using 10 mM sodium citrate, pH 6.0. 10% normal serum (from the same species as the host of the secondary antibody) was used to block and to dilute antibodies. Samples were washed twice for 10 min each, in PBST between each step.
# After blocking for one hour at room temperature, tissues were incubated with 1:300 goat anti-Iba1 (Abcam), 1:250 goat anti-GFAP (Abcam), 1:500 chicken anti-NeuN (Millipore, Billerica, Mass.), or 1:100 mouse anti-NeuN (Millipore) in host appropriate blocking serum overnight at 4° C. Primary antibodies were probed with 1:500 donkey anti-goat (Abcam), goat anti-chicken (Abcam), or goat anti-mouse (Abcam) AF 488 or 568 in appropriate blocking serum for one hour at room temperature. Tissues were blocked a second time with NGS for one hour at room temperature. […]
# [1] = system: neurons, microglia and astrocytes of ipsilateral cortex and hippocampus; test: Immunofluorescence of neurons (NeuN), microglia (Iba1), astrocytes (GFAP) after HIE; conditions: P<0.05
# Protocol: as §1
# After blocking for one hour at room temperature, tissues were incubated with 1:300 goat anti-Iba1 (Abcam), 1:250 goat anti-GFAP (Abcam), 1:500 chicken anti-NeuN (Millipore, Billerica, Mass.), or 1:100 mouse anti-NeuN (Millipore) in host appropriate blocking serum overnight at 4° C. Primary antibodies were probed with 1:500 donkey anti-goat (Abcam), goat anti-chicken (Abcam), or goat anti-mouse (Abcam) AF 488 or 568 in appropriate blocking serum for one hour at room temperature. Tissues were blocked a second time with NGS for one hour at room temperature. Samples were then probed with 1:300 mouse anti-C1q (Abcam), 1:300 rabbit anti-C9, 1:50 rabbit anti-MPO (Abcam), 1:200 rabbit anti-TMEM (Novus Bio, Centennial, Colo.), 1:100 rabbit anti-C3aR (Bioss), 1:100 Mouse anti-C5aR (Hycult), or 1:200 chicken anti-C3/C3a (Abcam) in NGS overnight at 4° C. and then with 1:500 goat anti-mouse, rabbit, or chicken (Abcam) AF 488 or 568 in NGS for one hour at room temperature.
# (§2) Fluorescent images of the cortex were taken at 20× magnification using a digital camera (DP70, Olympus Center, Valley Forge, Pa.), mounted on a BX50 Olympus microscope. Adobe Photoshop CS5 was used to merge immunofluorescence images, and Image J (National Institutes of Health) was used for analysis.
# [2] = system: brain lesion after hypoxia/ischemia; test: T2 MRI for brain tissue viability, lesion volume and edema
# Protocol: Neonatal hypoxia/ischemia was induced in Wistar rat pups (age of 10±1 days, P10) according to Rice et al. (1981) and with modifications. Rat pups were anesthetized with 5% isoflurane (in 70% N2O and 30% O2; flow 300 ml/min). During the operation the concentration of anesthetic was reduced to 1.0-1.5% to maintain adequate level of anesthesia. The rectal temperature was maintained at 37.0±1.5° C. with a homeothermic blanket system (Harvard Apparatus, UK). Just before first incision, pups received buprenorphine 0.03 mg/kg i.p. After midline skin incision, the right common carotid artery (CCA) was exposed and permanently ligated distal from the carotid bifurcation. Thereafter the wound was closed, disinfected, and the animals were allowed to recover from anesthesia for 1 hour before subjecting them to hypoxic conditions. Pups were carefully monitored for possible post-surgical complications. An additional dose of buprenorphine 0.03 mg/kg was administered s.c. twice a day during the first 48 hours post-surgery.
# Therma-treatment (6 hours) was started 1 hour post-hypoxia, to maintain normothermia (36+/−1° C. rat internal temperature) or hypothermia (31° C.+/−1 rat internal temperature), as follows. After CCA ligation, suturing and recovery for 1 h, pups were placed into chamber submerged to heated (+37° C.) water bath. Chamber was ventilated with heated (gas lines submerged to +37° C. water) mixture of 8% O2/92% N2 while pups were subjected to hypoxia. During the hypoxia period, chamber inner temperature was monitored. Pups were kept under hypoxic conditions for 60 minutes, except in group 5. In all pups the rectal temperature was monitored to ensure normothermic body temperature during hypoxia exposure. Rectal temperature after the H/I period was measured and recorded at the end of the exposure.
# No other preparation was needed. The thawed tubes were kept on ice until dosing. […]
# Brain tissue viability was performed as follows. Lesion T2 and Control T2 values (in milliseconds) were measured at 24 hours and 21 days after H/I, and the data are shown as average. […]
# [3] = system: apoptosis in cortex and hippocampus; test: TUNEL/DAPI/C1q staining of brain sections 48 hours after injury
# Protocol: To assess the effect of PIC1 on cell death at 48 hours after the initial injury, TUNEL staining, alone or in combination with C1q staining, was utilized to measure DNA strand breaks that are generated during apoptosis.
# as §1
# For C1q/TUNEL co-staining, tissue was incubated with the TUNEL solution according to manufacturer's instructions (In Situ Cell Death Detection Kit, Roche Molecular Diagnostics, Pleasanton, Calif.), followed by blocking with NGS for one hour at room temperature. C1q was probed using 1:300 mouse anti-C1q (Abcam) in NGS for 30 min at 37° C., followed by incubation in 1:500 goat anti-mouse (Abcam) AF 568 for 30 min at 37° C. All samples were mounted with aqueous mounting media comprising 4′,6-diamidino-2-phenylindole (Vectashield antifade mounting medium with DAPI, Vector Laboratories, Burlingame, Calif.) and coverslipped.
# as §2
substance,measurement,setting,value
IALILEPICCQERAA-dPEG24 (cysteine pairing not given here) [PIC1],C1q expression,C1q,significant reduction
same,neuronal density,"[1]; 48 hours, versus NT and HT",higher neuronal density
same,astrogliosis,[1]; versus NT,reduced astrogliosis
same,microglial numbers and size,[1]; versus NT,reduced microglial numbers and size
same,lesion volume in MRI,"[2]; 24 hours, pooled genders, H/I+PIC1+hypo versus H/I+hypo, p<0.05",reduction; also recorded: significant difference
same,edema (%) in MRI,"[2]; 21 days, pooled genders, H/I+PIC1+normo versus H/I+hypo, p<0.01",reduction
same,control T2 value,"[2]; contralateral cortex, between study groups, pooled or separated genders",no changes; also recorded: No statistical significances
same,"TUNEL positive cells (DNA fragmentation), cortex and hippocampus","[3]; 48 hours, versus NT (P=0.02) and HT (P=0.04)",significantly fewer
same,cell count,[3]; PIC1- versus HT-treated animals,no significant difference
same,nucleus size,[3]; versus NT (P=0.02) and HT (P=0.04),significantly improved
same,nuclear density by DAPI staining,"[3]; versus NT animals, P=0.01",markedly improved
same,C1q/TUNEL co-localization,"[3]; versus NT animals, ipsilateral cortex",qualitative reduction
same,cell counts (stained nuclei),"[3]; versus NT, P=0.03",significantly improved
